Results published in ChEMBL document CHEMBL3751851, “Antileukemic activity of lignans and phenylpropanoids of Cinnamomum parthenoxylon” (Bioorg Med Chem Lett, 2016).
The source made the active and inactive calls. No cut-off for these calls is given here.

Tests used:
[1] = Cytotoxicity against human HL60 cells after 48 hrs by CCK8 assay; type: functional, cell-based; conditions: HL-60, 48 h
U-937 = experiment: Induction of apoptotic morphological changes in human U937 cells at 50 uM after 48 hrs by Hoechst 33342 staining; type: functional, cell-based
[2] = Cytotoxicity against human U937 cells after 48 hrs by CCK8 assay; type: functional, cell-based; conditions: U-937, 48 h
Huh-7 = experiment: Induction of apoptosis in human HuH7 cells assessed as increase of casapase-3 activity after 1 hr by DEVD-pNA cleavage assay relative to control; type: functional
HL-60 = experiment: Induction of apoptotic morphological changes in human HL60 cells at 50 uM after 48 hrs by Hoechst 33342 staining; type: functional, cell-based

SMILES | IC50 [1] | Activity (U-937) | IC50 [2] | fold change (FC) (Huh-7) | Activity (HL-60)
O=C1OC[C@H](Cc2ccc3c(c2)OCO3)[C@H]1Cc1ccc2c(c1)OCO2 [HINOKININ] | 31.3 µM | Active | 10.4 µM | 2 | Active
OC1OC[C@H](Cc2ccc3c(c2)OCO3)[C@H]1Cc1ccc2c(c1)OCO2 (stereo partly specified) | 38.2 µM | Active | 15.7 µM | – | Active
OCC(O)Cc1ccc2c(c1)OCO2 (stereo unspecified) [SAFROLGLYCOL] | 60 µM | – | 50.8 µM | – | –
C=CCc1ccc2c(c1)OCO2 [SAFROLE] | 53.2 µM | – | 52.3 µM | – | –
c1cc2c(cc1C[C@H]1COC[C@@H]1Cc1ccc3c(c1)OCO3)OCO2 | 51.1 µM | Active | 40.2 µM | – | –
